Data on nine compounds can be found in patent EP0330992A2, “Novel cyclobutane Derivatives, processes for their preparation and pharmaceutical compositions comprising them” (Nippon Kayaku Kabushiki Kaisha, priority 1988, dated 1989).

Type in all cases: cell-based
Experiment [1] deals with human cytomegalovirus (HCMV). Briefly: Anticytomegaloviral plaque formation inhibition in human fetal fibroblast (Test Example 2, Method 2). The note with it: Human betaherpesvirus 5, 240 h, AO169 strain, 10 days, read-out: IC₅₀ HCMV. The method, then:
An activity against human cytomegalovirus (HCMV) which was DNA virus was examined by the following method.
Anticytomegaloviral activity was determined in terms of 50% inhibitory concentration (IC₅₀) by infecting 35 mm dish having a single layer of human fetal fibroblast with 100 PFU (plaque forming unit) of cytomegalovirus (AO169 strain), adsorbing for an hour, laying thereon a medium containing the compound of each concentration supplemented with 0.5% agarose and 2% fetal calf serum, culturing at 37°C for 10 days in a 5% (v/v) carbon dioxide gas incubator and measuring formation of plaque.

A further experiment deals with hepatitis B virus (HBV). Briefly: Hepatitis B virus DNA in liver cell line HB611, Southern method (Test Example 3, Method 3). The note with it: 360 h, HB611 cells, 15 days, HBV DNA by Southern method, read-out: IC₅₀ HBV. The method, then: Activity against hepatitis B virus (HBV) which was DNA virus was examined by the following method.
Incubated liver cell line HB611 (Proc. Natl. Acad. Sci. USA, 84 (1987), 444) capable of producing and releasing activated hepatitis B virus was cultured in modified Eagle's medium (GIBCO) at 37°C in 5% CO₂ in the presence 10% fetal calf serum, 200 µg/ml of G418 and 100 U/ml each of penicillin and streptomycin. The culture was inoculated on a 6 well plate in 5 x 10⁴ cells/well (35 mm). When 50% confluent state was achieved 1 or 2 days after, a definite quantity of this compound was added and the mixture was cultured. While exchanging with a medium containing the compound in the same concentration every 3 other days, incubation was continued for 15 days. Thereafter the medium was removed. The cells were treated with 0.5 ml of lysis buffer (10 mM Tris HCl, pH 7.8/5 mM Na₂EDTA, 1% SDS/0.1 mg/ml Pronase K) at 37°C for an hour. The resulting DNA was treated with RNase and purified by treatment with phenol and chloroform and then precipitation with ethanol.
Then, 5 µg of DNA was treated with Hind III and DNA pattern was analyzed by the Southern method using as a probe ³²P-labeled hepatitis B virus DNA.

In experiment [2] the test system is herpes simplex virus type 1 (HSV-I). The experiment can be described thus: Plaque formation inhibition in Vero cells (Test Example 1, Method 1). The note with it: Human alphaherpesvirus 1, 48 hours, read-out: IC₅₀ HSV-1. The method, then: (§1) Antiviral activity against herpes simplex virus type 1 (HSV-I) and herpes simplex virus type 2 (HSV-II) which were DNA viruses was examined by the following methods.
(§2) A 6 well multiplate bearing a single layr of Vero cells (derived from African green monkey kidney cell) was infected with 100-150 PFU (plaque forming unit) of virus. After (infection) at 37°C for an hour, agar medium (Eagle's MEM medium supplemented with 1.5% agar) containing a sample of each concentration was put on the single layer followed by culturing at 37°C for 48 hours in a 5% (v/v) carbon dioxide incubator. Thereafter, formation of plaque was measured to determine 50% inhibitory concentration (IC₅₀).

The test system of experiment [3] is human uterine cervical cancer HeLa S₃. The experiment can be described thus: Growth inhibition of HeLa S3 cells, Methylene Blue staining (Test Example 5, Method 5). The note with it: 50% growth inhibitory concentration, 72 hours, read-out: IC₅₀ HeLaS₃. As for the experimental part: Anticancer activity against human uterine cervical cancer HeLa S₃, mouse leukemia L1210 and P388 cells was examined by the following method. HeLa S₃ cells were prepared in a concentration of 7.5 x 10³ cells/ml and inoculated on a 96 well flat bottom plate by 0.2 ml/well each. After culturing at 37°C for 24 hours in a 5% CO₂ incubator, 10 µl of the compound was added thereto followed by culturing for 72 hours. After culturing, the culture medium of each well was withdrawn and fixed with methanol. Then, 0.1 ml/well each of 0.05% Methylene Blue/10 mM-Tris-HCl (pH 8.5) solution was added to stain at room temperature for 30 minutes. After withdrawing the dyeing solution from each well using an aspirator, the well was washed 3 times with pure water. After adding 3% HCl in a ratio of 0.2 ml/well, the well was sealed and allowed to stand at room temperature for about 24 hours and the dye was then extracted from the cells. Absorbance of each well at 660 nm was measured with Dynatec microplate reader. The growth inhibition rate treated wells to the control wells were calculated according to the equation below and 50% growth inhibitory concentration (IC₅₀, µg/ml) was determined by the Litchfield method. Growth inhibition rate (%) = (1 - A₁/A₀) x 100 wherein A₁ = Absorbance of the treated group A₀ = Absorbance of the control group

Experiment [4] deals with mouse leukemia P388 cells. The experiment can be described thus: Growth inhibition of P388 cells, cell count (Test Example 5, Method 6). The note with it: 50% growth inhibitory concentration, 48 hours, read-out: IC₅₀ P338. The method, then: (§3) Anticancer activity against human uterine cervical cancer HeLa S₃, mouse leukemia L1210 and P388 cells was examined by the following method. P388 and L1210 cells were inoculated on a 24 well plate and the compound was added thereto followed by incubation at 37°C for 48 hours in 5% CO₂. The number of cells after the incubation was counted with a Caulter counter. The growth inhibition rate of the treated group to the control group was calculated according to the equation below and 50% growth inhibitory concentration (IC₅₀, µg/ml) was determined by the Litchfield method. Growth inhibition rate (%) = [1 - (NT-N₀)/(Nc-N₀)] x 100 wherein NT = cell count of the treated group N₀ = cell count at the onset of incubation Nc = cell count of the control group

Experiment [5] relates to mouse leukemia L1210 cells. The experiment can be described thus: Growth inhibition of L1210 cells, cell count (Test Example 5, Method 6). The note with it: 50% growth inhibitory concentration, 48 hours, read-out: IC₅₀ L1210. As for the experimental part: as §3
For experiment [6], the system named is herpes simplex virus type 2 (HSV-II). The experiment can be described thus: Plaque formation inhibition in Vero cells (Test Example 1, Method 1). The note with it: Human alphaherpesvirus 2, 48 hours, read-out: IC₅₀ HSV-2. The method, then:
as §1, §2

The next experiment deals with AIDS virus (HIV). The experiment can be described thus: Anti-HIV activity in MT-4 cells, viral antigen by fluorescent antibody method (Test Example 4, Method 4). The note with it: Human immunodeficiency virus 1, MT4, 96 h, read-out: IC₅₀ HIV. The method, then: Activity against AIDS virus (HIV) which was RNA virus was examined by the following method.
In an anti-HIV (human immunodeficiency virus) active 24 well tray were charged about 50,000/ml of MT-4 cells. Further […] of a solution containing a definite amount of the compound of this invention was added thereto. After culturing at 37°C for 2 hours in a 5% (v/v) carbon dioxide gas incubator, 10³-10⁴ infection units of HIV were added thereto. After culturing for 4 days, a part of the culture solution was smeared on a slide glass and fixed with acetone. Then, occurrence of viral antigen was observed by fluorescent antibody method.
As primary antibody in the fluorescent antibody method, serum from the patient with AIDS was used and FITC-labeled anti-human IgG was used as secondary antibody.

In brackets after ≈: the same amount, converted by molar mass.

As to `[N-]=[N+]=N[C@@H]1[C@@H](CO)C[C@H]1n1cc(F)c(=O)[nH]c1=O` (racemic) [Compound 14, (±)-1-[(1β,2α,3β)-2-azido-3-hydroxymethylcyclobutan-1-yl]-5-fluoro-2,4(1H,3H)-pyrimidinedione], the IC50 in experiment [1] was 20 µg/mL (≈ 78.4 µM); in the experiment with hepatitis B virus (HBV), 32 µg/mL (≈ 125 µM).
Take `Nc1nc(Cl)c2ncn([C@@H]3C[C@H](CO)[C@H]3O)c2n1` (racemic) [Compound 4-3, (±)-2-amino-6-chloro-9-[(1β,2α,3β)-2-hydroxy-3-hydroxymethylcyclobutan-1-yl]purine]: the IC50 in experiment [2] was 8.5 µg/mL (≈ 31.5 µM); in experiment [1], 3.3 µg/mL (≈ 12.2 µM); in experiment [3], 66 µg/mL (≈ 245 µM); in experiment [4], 12 µg/mL (≈ 44.5 µM); in experiment [5] it was 8 µg/mL (≈ 29.7 µM).
`O=c1[nH]cnc2c1ncn2[C@@H]1C[C@H](CO)[C@H]1O` (racemic) [Compound 4-2, (±)-9-[(1β,2α,3β)-2-hydroxy-3-hydroxymethylcyclobutan-1-yl]hypoxanthine]: the IC50 in experiment [1] was 2.8 µg/mL (≈ 11.9 µM).
For `Cc1cn([C@@H]2C[C@H](CO)[C@H]2N)c(=O)[nH]c1=O` (racemic) [Compound 17, (±)-1-[(1β,2α,3β)-2-amino-3-hydroxymethylcyclobutan-1-yl]-5-methyl-2,4(1H,3H)-pyrimidinedione], the IC50 with hepatitis B virus (HBV) came to 35 µg/mL (≈ 155 µM).
As for `Nc1ncnc2c1ncn2[C@@H]1C[C@H](CO)[C@H]1O` (racemic) [Compound 7, (±)-9-[(1β,2α,3β)-2-hydroxy-3-hydroxymethylcyclobutan-1-yl]adenine], the IC50 in experiment [2] worked out at 4 µg/mL (≈ 17 µM); in experiment [1] it was 0.45 µg/mL (≈ 1.91 µM); in experiment [3], 6.97 µg/mL (≈ 29.6 µM); in experiment [4], 1.64 µg/mL (≈ 6.97 µM); in experiment [5] it was 1.84 µg/mL (≈ 7.82 µM).
For the compound `Nc1nc2c(ncn2[C@@H]2C[C@H](CO)[C@H]2O)c(=O)[nH]1` (racemic) [Compound 9, (±)-9-[(1β,2α,3β)-2-hydroxy-3-hydroxymethylcyclobutan-1-yl]guanine], the IC50 in experiment [2] was 0.3 µg/mL (≈ 1.19 µM); in experiment [6], 0.31 µg/mL (≈ 1.23 µM); in experiment [1], 0.95 µg/mL (≈ 3.78 µM); in experiment [3], 10.9 µg/mL (≈ 43.4 µM); in experiment [4], 2.57 µg/mL (≈ 10.2 µM); in experiment [5], 2.56 µg/mL (≈ 10.2 µM).
As for `Nc1nc2c(ncn2[C@H]2C[C@@H](CO)C2)c(=O)[nH]1` [Compound 2-2, 9-[(1β,3β)-3-hydroxymethylcyclobutan-1-yl]guanine], the IC50 is 1.6 µg/mL (≈ 6.8 µM) in experiment [2]; 3.6 µg/mL (≈ 15.3 µM) in experiment [6]; 10 µg/mL (≈ 42.5 µM) in the experiment on AIDS virus (HIV); 2.6 µg/mL (≈ 11.1 µM) in experiment [1]; 30 µg/mL (≈ 128 µM) in experiment [3]; 11.5 µg/mL (≈ 48.9 µM) in experiment [4]. In experiment [5], the IC50 was determined as 23.1 µg/mL (≈ 98.2 µM).
Take `Nc1ncnc2c1ncn2[C@H]1C[C@@H](CO)C1` [Compound 2-1, 9-[(1β,3β)-3-hydroxymethylcyclobutan-1-yl]adenine]: the IC50 in the experiment on AIDS virus (HIV) stood at 0.3 µg/mL (≈ 1.37 µM); in the experiment with hepatitis B virus (HBV), 2 µg/mL (≈ 9.12 µM); in experiment [3], 100 µg/mL (≈ 456 µM); in experiment [4], 34.1 µg/mL (≈ 156 µM); in experiment [5], 63.1 µg/mL (≈ 288 µM).
As for `Nc1nc(N)c2ncn([C@@H]3C[C@H](CO)[C@H]3O)c2n1` (racemic) [Compound 4-4, (±)-2,6-diamino-9-[(1β,2α,3β)-2-hydroxy-3-hydroxymethylcyclobutan-1-yl]purine], the IC50 in experiment [2] is 2.2 µg/mL (≈ 8.79 µM); in the experiment with AIDS virus (HIV) it was 3 µg/mL (≈ 12 µM); in experiment [1], 0.69 µg/mL (≈ 2.76 µM); in experiment [3] it was 21 µg/mL (≈ 83.9 µM); in experiment [4], 3.4 µg/mL (≈ 13.6 µM); in experiment [5], 2.4 µg/mL (≈ 9.59 µM).
